From the kinase profiling compilation of Christmann-Franck et al. (2016) come the findings set out here.

Common to all, as to experiment: radiometric filter-binding kinase assay, Kinaseprofiler
One experiment has as its target EPHA4 (human) (UniProt P54764). To be noted: ATP 15 µM.
Another experiment has as its target STK33 (human) (UniProt Q9BYT3). To be noted: ATP 155 µM.
A further experiment deals with MINK1 (human) (UniProt Q8N4C8). The note with it: ATP 185 µM.
For another experiment, the target named is HCK (human) (UniProt P08631).
Chain of HCK (human) (P08631 whole entry, looked up): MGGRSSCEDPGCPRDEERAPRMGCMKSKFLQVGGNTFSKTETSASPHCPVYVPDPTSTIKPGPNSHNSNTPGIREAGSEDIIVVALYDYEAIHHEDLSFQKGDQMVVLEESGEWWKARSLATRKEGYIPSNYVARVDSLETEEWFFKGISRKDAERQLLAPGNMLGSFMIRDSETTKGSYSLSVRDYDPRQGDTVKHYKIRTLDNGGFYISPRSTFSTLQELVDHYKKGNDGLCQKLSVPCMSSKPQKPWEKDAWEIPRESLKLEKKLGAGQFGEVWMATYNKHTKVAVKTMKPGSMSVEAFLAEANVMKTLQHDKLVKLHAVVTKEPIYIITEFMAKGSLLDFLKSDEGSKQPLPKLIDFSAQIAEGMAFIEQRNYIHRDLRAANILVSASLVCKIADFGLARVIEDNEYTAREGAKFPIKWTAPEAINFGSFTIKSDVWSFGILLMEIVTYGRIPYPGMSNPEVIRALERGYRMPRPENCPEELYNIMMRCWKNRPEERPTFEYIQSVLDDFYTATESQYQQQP
The next experiment addresses ABL2 (human) (UniProt P42684). To be noted: ATP 45 µM.

Chain of EPHA4 (human) (P54764 whole entry, looked up): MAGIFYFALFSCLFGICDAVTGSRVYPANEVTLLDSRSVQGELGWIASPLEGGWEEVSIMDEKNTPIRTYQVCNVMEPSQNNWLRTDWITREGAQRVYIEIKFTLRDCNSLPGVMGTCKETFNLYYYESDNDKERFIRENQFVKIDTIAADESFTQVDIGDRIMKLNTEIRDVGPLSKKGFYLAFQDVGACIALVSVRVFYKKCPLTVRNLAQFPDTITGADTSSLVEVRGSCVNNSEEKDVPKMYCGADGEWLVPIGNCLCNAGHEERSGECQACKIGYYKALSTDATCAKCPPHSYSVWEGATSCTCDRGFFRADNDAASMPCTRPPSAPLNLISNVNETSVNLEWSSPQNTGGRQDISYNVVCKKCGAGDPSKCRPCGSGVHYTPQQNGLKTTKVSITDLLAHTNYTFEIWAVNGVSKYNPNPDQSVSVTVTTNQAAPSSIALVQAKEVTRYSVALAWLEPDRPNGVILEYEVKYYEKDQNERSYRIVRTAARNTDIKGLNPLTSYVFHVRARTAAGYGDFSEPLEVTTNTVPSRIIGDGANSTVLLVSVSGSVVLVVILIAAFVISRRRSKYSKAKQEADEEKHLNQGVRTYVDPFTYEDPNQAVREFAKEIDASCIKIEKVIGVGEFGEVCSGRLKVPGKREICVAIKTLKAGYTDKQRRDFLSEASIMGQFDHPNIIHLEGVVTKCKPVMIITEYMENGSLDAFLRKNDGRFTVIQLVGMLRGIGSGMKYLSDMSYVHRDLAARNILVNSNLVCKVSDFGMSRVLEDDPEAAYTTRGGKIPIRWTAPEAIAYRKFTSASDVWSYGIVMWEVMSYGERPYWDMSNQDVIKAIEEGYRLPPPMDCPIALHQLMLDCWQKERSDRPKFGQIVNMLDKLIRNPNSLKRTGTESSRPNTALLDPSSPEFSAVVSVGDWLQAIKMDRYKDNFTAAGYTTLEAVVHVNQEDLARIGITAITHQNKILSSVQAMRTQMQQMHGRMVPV
Chain of MINK1 (human) (Q8N4C8 whole entry, looked up): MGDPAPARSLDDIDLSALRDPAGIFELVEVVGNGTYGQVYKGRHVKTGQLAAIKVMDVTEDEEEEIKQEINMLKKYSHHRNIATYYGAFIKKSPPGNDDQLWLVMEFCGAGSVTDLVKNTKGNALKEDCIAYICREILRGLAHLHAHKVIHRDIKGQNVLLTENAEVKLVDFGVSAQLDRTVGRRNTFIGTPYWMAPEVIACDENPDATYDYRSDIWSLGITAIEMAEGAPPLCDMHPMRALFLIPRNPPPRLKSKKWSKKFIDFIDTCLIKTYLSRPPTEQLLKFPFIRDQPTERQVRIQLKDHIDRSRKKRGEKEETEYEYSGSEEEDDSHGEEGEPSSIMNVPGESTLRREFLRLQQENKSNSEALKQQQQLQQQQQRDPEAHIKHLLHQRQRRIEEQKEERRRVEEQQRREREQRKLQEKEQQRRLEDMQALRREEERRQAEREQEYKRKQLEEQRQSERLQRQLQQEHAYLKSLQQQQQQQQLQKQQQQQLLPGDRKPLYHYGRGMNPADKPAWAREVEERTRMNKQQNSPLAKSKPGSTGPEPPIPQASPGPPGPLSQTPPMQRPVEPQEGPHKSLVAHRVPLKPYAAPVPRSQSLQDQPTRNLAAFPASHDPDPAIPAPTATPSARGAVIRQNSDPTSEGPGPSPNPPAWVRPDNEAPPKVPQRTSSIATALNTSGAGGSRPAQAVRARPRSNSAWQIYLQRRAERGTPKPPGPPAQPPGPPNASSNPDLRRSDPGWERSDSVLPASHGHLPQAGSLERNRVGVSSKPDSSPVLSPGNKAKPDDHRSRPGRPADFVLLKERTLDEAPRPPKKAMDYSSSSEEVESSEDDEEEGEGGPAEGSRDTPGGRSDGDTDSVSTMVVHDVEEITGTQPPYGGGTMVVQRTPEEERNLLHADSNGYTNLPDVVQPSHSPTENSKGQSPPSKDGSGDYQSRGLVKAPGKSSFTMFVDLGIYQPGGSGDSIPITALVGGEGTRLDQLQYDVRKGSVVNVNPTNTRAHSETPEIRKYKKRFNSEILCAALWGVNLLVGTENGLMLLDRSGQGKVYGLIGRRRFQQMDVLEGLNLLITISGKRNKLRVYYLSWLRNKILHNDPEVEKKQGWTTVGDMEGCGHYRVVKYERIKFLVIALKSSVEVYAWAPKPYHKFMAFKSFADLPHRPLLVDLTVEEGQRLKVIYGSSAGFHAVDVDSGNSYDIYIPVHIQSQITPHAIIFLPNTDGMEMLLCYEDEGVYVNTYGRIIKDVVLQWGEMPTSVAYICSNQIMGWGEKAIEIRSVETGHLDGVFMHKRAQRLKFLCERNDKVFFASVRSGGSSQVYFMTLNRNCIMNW
Chain of STK33 (human) (Q9BYT3 whole entry, looked up): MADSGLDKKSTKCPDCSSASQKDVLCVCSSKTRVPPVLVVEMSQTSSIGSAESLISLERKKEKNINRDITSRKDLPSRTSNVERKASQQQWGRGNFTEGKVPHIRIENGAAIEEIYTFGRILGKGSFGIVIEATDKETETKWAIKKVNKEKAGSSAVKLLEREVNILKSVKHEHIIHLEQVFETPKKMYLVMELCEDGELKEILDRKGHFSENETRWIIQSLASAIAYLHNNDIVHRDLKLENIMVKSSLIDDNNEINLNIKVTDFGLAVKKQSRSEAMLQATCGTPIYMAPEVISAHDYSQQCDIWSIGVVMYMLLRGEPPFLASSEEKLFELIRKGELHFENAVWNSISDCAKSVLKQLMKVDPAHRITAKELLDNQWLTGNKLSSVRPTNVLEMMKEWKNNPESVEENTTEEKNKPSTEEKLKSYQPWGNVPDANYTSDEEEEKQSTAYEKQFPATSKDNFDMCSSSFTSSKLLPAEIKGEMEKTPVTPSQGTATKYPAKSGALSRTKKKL
Chain of ABL2 (human) (P42684 whole entry, looked up): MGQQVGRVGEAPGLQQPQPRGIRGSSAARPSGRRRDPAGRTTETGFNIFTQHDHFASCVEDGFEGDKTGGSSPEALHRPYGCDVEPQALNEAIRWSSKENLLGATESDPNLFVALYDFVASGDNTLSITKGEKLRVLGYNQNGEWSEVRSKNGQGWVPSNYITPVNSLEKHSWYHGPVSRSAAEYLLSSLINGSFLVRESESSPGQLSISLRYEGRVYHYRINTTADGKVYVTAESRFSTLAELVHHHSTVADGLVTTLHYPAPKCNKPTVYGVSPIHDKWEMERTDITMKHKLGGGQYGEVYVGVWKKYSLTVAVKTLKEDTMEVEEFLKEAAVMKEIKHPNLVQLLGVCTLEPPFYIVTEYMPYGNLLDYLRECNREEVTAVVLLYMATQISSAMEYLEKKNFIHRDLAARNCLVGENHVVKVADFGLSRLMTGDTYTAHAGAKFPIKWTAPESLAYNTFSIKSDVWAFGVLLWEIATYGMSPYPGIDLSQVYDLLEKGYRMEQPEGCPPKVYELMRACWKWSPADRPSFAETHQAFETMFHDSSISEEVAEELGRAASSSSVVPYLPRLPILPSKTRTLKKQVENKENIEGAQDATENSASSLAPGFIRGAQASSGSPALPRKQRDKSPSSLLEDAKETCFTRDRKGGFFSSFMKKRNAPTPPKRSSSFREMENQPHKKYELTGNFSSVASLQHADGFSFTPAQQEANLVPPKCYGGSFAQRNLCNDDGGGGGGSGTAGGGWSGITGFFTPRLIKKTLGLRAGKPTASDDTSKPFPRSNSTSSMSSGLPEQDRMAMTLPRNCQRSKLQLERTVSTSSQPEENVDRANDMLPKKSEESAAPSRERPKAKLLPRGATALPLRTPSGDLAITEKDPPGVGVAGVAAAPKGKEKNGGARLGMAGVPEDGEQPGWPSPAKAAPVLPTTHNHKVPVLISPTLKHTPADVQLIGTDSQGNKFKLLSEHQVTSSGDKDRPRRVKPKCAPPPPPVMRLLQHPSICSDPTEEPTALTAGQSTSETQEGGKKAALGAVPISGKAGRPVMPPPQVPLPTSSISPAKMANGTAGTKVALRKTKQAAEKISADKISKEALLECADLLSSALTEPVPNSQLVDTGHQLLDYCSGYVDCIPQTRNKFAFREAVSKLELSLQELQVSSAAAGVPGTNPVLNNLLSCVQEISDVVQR

Take `O=C1Nc2ccccc2/C1=C1\Nc2ccccc2\C1=N/O`: the residual activity (commonly the share of the control activity or signal that is left under treatment) at EPHA4 (human) (compound 1.0 µM) worked out at 96%; at EPHA4 (human) (compound 10.0 µM), 83%; at STK33 (human) (compound 1.0 µM), 43%; on STK33 (human) (compound 10.0 µM), 8%; at MINK1 (human) (compound 1.0 µM) it was 54%; at MINK1 (human) (compound 10.0 µM), 10%. The residual activity at HCK (human) (compound 1.0 µM, ATP 45 µM) stood at 8%; on HCK (human) (compound 1.0 µM, ATP 70 µM), 15%; at HCK (human) (compound 10.0 µM, ATP 45 µM), 1%; at HCK (human) (compound 10.0 µM, ATP 70 µM) it was 5%; on ABL2 (human) (compound 1.0 µM) it was 30%; at ABL2 (human) (compound 10.0 µM), 28%.
